Patent US10912741B2, “Prevention of liver cancer with safranal-based formulations” (United Arab Emirates University, priority 2019, dated 2021)
Marks after values point to notes of the source that are not given here.

Legend:
Type in all cases: in vivo, albino Wistar rats
Malondialdehyde (MDA) = test: MDA level in liver homogenate, DEN/2-AAF hepatocarcinogenesis model; settings: mean±SEM, 8 rats
Experimental: The experimental hepatocarcinogenesis model was developed according to a protocol by […] et al. that was adapted for our purposes. To initiate and promote hepatocarcinogenesis, diethylnitrosamine (DEN) and 2-acetylaminofluorene (2-AAF) were used, respectively. For hepatocarcinogenesis initiation in this model, a single DEN dose (200 mg/kg b.wt.) dissolved in saline was injected intraperitoneally. After initiation, all rats underwent one period of 5-days fasting, as mitotic proliferative stimuli. To promote hepatocarcinogenesis, 2-acetylaminofluorene (2-AAF) was introduced in the form of six daily intragastric doses (30 mg/kg in 1% Tween 80); two weeks after DEN treatment. […] at doses of 25 mg/kg by weight (b.wt.) and 50 mg/kg b.wt, was administrated orally to rats. These doses have been reported to suppress chemically-induced oxidative damage in rats. A total of 40 adult male albino Wistar rats were randomly divided into […] (n=8) and were subjected to different treatments. Group 1 (control) was orally administered distilled water (5 ml/kg b.wt.) throughout the experimental duration and were injected with a single dose of saline. Group 2 ([…] only) was subjected to a safranal dose (50 mg/kg b.wt.) through oral administration for the duration of the experimental period. Hepatocarcinogenesis was induced by DEN and promoted by 2-AAF, as reported previously, in group 3 (HCC). […] Glutathione (GSH) content was determined by analyzing liver homogenates, according to the method of Van Dooran et al. The assay depends on measuring yellow 5-thiol-2-nitrobenzoate absorbance at 412 nm. Glutathione-S-transferase (GST) activity was determined using the method of Habig et al. GST catalyzes the conjugation of GSH thiol group with 1-Chloro-2,4-dinitrobenzene (CDNB), which can be measured by determining the increase in absorbance at 340 nm. […] CAT decomposes hydrogen peroxide (H2O2) to oxygen and water; therefore, the activity of CAT was evaluated according to by the exponential decomposition of H2O2 at 240 nm. […] UV-160-Shimadzu recording spectrophotometer was used to record absorbances. […]

ED-1 (macrophages) = test: Immunohistochemical staining of liver sections, ED-1 positive cells (macrophages); settings: mean±SEM, 8 rats
Experimental: (§1) The experimental hepatocarcinogenesis model was developed according to a protocol by Espandiaria et al. that was adapted for our purposes. To initiate and promote hepatocarcinogenesis, diethylnitrosamine (DEN) and 2-acetylaminofluorene (2-AAF) were used, respectively. For hepatocarcinogenesis initiation in this model, a single DEN dose (200 mg/kg b.wt.) dissolved in saline was injected intraperitoneally. After initiation, all rats underwent one period of 5-days fasting, as mitotic proliferative stimuli. To promote hepatocarcinogenesis, 2-acetylaminofluorene (2-AAF) was introduced in the form of six daily intragastric doses (30 mg/kg in 1% Tween 80); two weeks after DEN treatment.
Safranal at doses of 25 mg/kg by weight (b.wt.) and 50 mg/kg b.wt, was administrated orally to rats. These doses have been reported to suppress chemically-induced oxidative damage in rats. A total of 40 adult male albino Wistar rats were randomly divided into […] (n=8) and were subjected to different treatments. Group 1 (control) was orally administered distilled water (5 ml/kg b.wt.) throughout the experimental duration and were injected with a single dose of saline. Group 2 (Safranal only) was subjected to a safranal dose (50 mg/kg b.wt.) through oral administration for the duration of the experimental period. Hepatocarcinogenesis was induced by DEN and promoted by 2-AAF, as reported previously, in group 3 (HCC). Rats in protective groups (groups 4-5) were treated with low/high doses of saffron-based safranal suspensions, at the beginning of promotion periods and continued for 12 weeks. The low dosage treatment with safranal consisted of 25 mg/kg b.wt., and the high dosage treatment consisted of 50 mg/kg b.wt. The experimental design is illustrated in FIG. 1.
For immunohistochemical staining, mounted sections were immersed in sodium citrate buffer (0.1 M, pH 6) and placed in a water bath for 15 minutes to unmask antigen epitopes. […] Ten fields were randomly selected to quantify positive cells, in individual samples (400×). […]

HDAC = HDAC colorimetric assay in liver homogenate
Experimental: as §1
Safranal at doses of 25 mg/kg by weight (b.wt.) and 50 mg/kg b.wt, was administrated orally to rats. These doses have been reported to suppress chemically-induced oxidative damage in rats. A total of 40 adult male albino Wistar rats were randomly divided into […] (n=8) and were subjected to different treatments. Group 1 (control) was orally administered distilled water (5 ml/kg b.wt.) throughout the experimental duration and were injected with a single dose of saline. Group 2 (Safranal only) was subjected to a safranal dose (50 mg/kg b.wt.) through oral administration for the duration of the experimental period. […]

[1] = HCC (DEN/2-AAF) rats + safranal high dose 50 mg/kg b.wt. oral, 12 weeks
[2] = HCC (DEN/2-AAF) rats + safranal low dose 25 mg/kg b.wt. oral, 12 weeks
[3] = safranal alone 50 mg/kg b.wt. oral, no DEN (group 2)

Compound: CC1=C(C=O)C(C)(C)CC=C1 [Safranal, 2,6,6-trimethylcyclohexa-1,3-diene-1-carbaldehyde]
- MDA (Malondialdehyde (MDA); [1]): 0.63 ± 0.03 nmol/mg protein
- MDA (Malondialdehyde (MDA); [2]): 0.61 ± 0.02 nmol/mg protein
- MDA (Malondialdehyde (MDA); [3]): 0.64 ± 0.02 nmol/mg protein
- ED-1 positive cells (ED-1 (macrophages); [1]): 49.84 ± 2.28^b positive cells/field
- ED-1 positive cells (ED-1 (macrophages); [2]): 59.19 ± 2.0^a&b positive cells/field
- ED-1 positive cells (ED-1 (macrophages); [3]): 44.33 ± 1.52 positive cells/field
- HDAC activity in liver (HDAC; low/high doses of safranal, DEN-treated (groups 4-5)): restored HDAC activity to the normal range
- HDAC activity in liver (HDAC; safranal alone (group 2), compared to control): did not change HDAC activity
